This is an account of results in BindingDB's records for patent WO2022076495 (MERCK SHARP & DOHME CORP., 2022).

Molecules are shown by their SMILES.

The target of the experiment is T1, Diacylglycerol O-acyltransferase 2 (Homo sapiens, UniProt Q96PD7).
T1 sequence (Q96PD7 whole entry): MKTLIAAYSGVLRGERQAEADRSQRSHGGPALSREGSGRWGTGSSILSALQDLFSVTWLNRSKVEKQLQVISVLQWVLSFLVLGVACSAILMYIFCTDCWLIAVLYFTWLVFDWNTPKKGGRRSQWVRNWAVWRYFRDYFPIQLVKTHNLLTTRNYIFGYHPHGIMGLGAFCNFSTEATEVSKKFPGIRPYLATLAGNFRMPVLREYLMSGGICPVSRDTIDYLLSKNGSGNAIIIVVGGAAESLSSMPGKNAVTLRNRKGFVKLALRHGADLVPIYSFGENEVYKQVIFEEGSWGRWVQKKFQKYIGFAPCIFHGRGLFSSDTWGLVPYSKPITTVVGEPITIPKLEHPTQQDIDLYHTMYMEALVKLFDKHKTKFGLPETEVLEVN
Kind of experiment: DGAT2 enzymatic activity assay. On the procedure:
DGAT2 activity was determined by measuring the amount of enzymatic product 13Ci8-triolein (13C-l,2,3-Tri(cis-9-octadecenoyl)glycerol) using the membrane prep mentioned above. The assay was carried out in ABgene 384-well assay plates in a final volume of 25 pL at rt. The assay mixture contained the following: assay buffer (100 mM Tris Cl, pH 7.0, 20 mM MgCl2, 5% ethanol), 25 pM of di olein, 5 μM of 13C oleoyl-CoA and 8 ng/pL of DGAT2 membrane.

`C[C@@H](n1c(=O)n(-c2cc(OC(F)F)ccc2F)c2ccc(C(=O)NC3(C)CCS(=O)(=O)CC3)cc21)C(C)(C)O` [WO2022076495, EXAMPLE 66b] showed an IC50 of 17 nM.

For the compound `C[C@H](n1c(=O)n(-c2cccc(OC(F)F)c2)c2ccc(C(=O)NC3(C)CCS(=O)(=O)CC3)cc21)C(C)(C)O` [WO2022076495, EXAMPLE 67a], the IC50 worked out at 1.6 nM.

For `C[C@@H](n1c(=O)n(-c2cccc(OC(F)F)c2)c2ccc(C(=O)NC3(C)CCS(=O)(=O)CC3)cc21)C(C)(C)O` [WO2022076495, EXAMPLE 67b], 211 nM corresponded to half-maximal inhibition (IC50).

As for `C[C@H](n1c(=O)n(-c2cccc(OCC(F)F)c2)c2ccc(C(=O)NC3(C)CCS(=O)(=O)CC3)cc21)C(C)(C)O` [WO2022076495, EXAMPLE 68a], half-maximal inhibition (IC50) required 4.1 nM.

For `C[C@@H](n1c(=O)n(-c2cccc(OCC(F)F)c2)c2ccc(C(=O)NC3(C)CCS(=O)(=O)CC3)cc21)C(C)(C)O` [WO2022076495, EXAMPLE 68b], the half-inhibitory concentration (IC50) is 1.8 nM.

As to `CCOc1cc(-n2c(=O)n([C@@H](C)C(C)(C)O)c3cc(C(=O)NC4(C)CCS(=O)(=O)CC4)ccc32)c(F)cn1` [WO2022076495, EXAMPLE 69a], the IC50 stood at 9.7 nM.

The compound `CCOc1cc(-n2c(=O)n([C@H](C)C(C)(C)O)c3cc(C(=O)NC4(C)CCS(=O)(=O)CC4)ccc32)c(F)cn1` [WO2022076495, EXAMPLE 69b] registered an IC50 of 3.9 nM.

`C[C@H](n1c(=O)n(-c2cc(OC(F)(F)F)ccc2F)c2cc(F)c(C(=O)NC3(C)CCS(=O)(=O)CC3)cc21)C(C)(C)O` [WO2022076495, EXAMPLE 70a] had an IC50 of 1 nM.

`C[C@@H](n1c(=O)n(-c2cc(OC(F)(F)F)ccc2F)c2cc(F)c(C(=O)NC3(C)CCS(=O)(=O)CC3)cc21)C(C)(C)O` [WO2022076495, EXAMPLE 70b] yielded an IC50 of 30 nM.

For the compound `C[C@H](n1c(=O)n(-c2cc(OC(F)(F)F)ccc2F)c2ccc(C(=O)NC3(C)CCS(=O)(=O)CC3)cc21)C(C)(C)O` [WO2022076495, EXAMPLE 71a], the midpoint of inhibition, the IC50, lay at 71 nM.

On to `C[C@@H](n1c(=O)n(-c2cc(OC(F)(F)F)ccc2F)c2ccc(C(=O)NC3(C)CCS(=O)(=O)CC3)cc21)C(C)(C)O` [WO2022076495, EXAMPLE 71b], for which it took 5.4 nM to reach half-maximal inhibition (IC50).

For the compound `C[C@H](n1c(=O)n(-c2cc(OCC(F)F)ncc2F)c2ccc(C(=O)NC3(C)CCS(=O)(=O)CC3)cc21)C(C)(C)O` [WO2022076495, EXAMPLE 72a], the IC50 stood at 6.4 nM.

As to `C[C@@H](n1c(=O)n(-c2cc(OCC(F)F)ncc2F)c2ccc(C(=O)NC3(C)CCS(=O)(=O)CC3)cc21)C(C)(C)O` [WO2022076495, EXAMPLE 72b], it took 6.6 nM to reach half-maximal inhibition (IC50).

As to `C[C@H](n1c(=O)n(-c2cc(OCC(F)F)ccc2F)c2ccc(C(=O)NC3(C)CCS(=O)(=O)CC3)cc21)C(C)(C)O` [WO2022076495, EXAMPLE 73a], the 50% inhibitory concentration (IC50) turned out to be 2.6 nM.

As to `C[C@@H](n1c(=O)n(-c2cc(OCC(F)F)ccc2F)c2ccc(C(=O)NC3(C)CCS(=O)(=O)CC3)cc21)C(C)(C)O` [WO2022076495, EXAMPLE 73b], the IC50 amounted to 3.3 nM.

Take `C[C@H](n1c(=O)n(-c2cc(OCC(F)F)ncc2F)c2cc(F)c(C(=O)NC3(C)CCS(=O)(=O)CC3)cc21)C(C)(C)O` [WO2022076495, EXAMPLE 74a]: half-maximal inhibition (IC50) was put at 6.1 nM.

As to `C[C@@H](n1c(=O)n(-c2cc(OCC(F)F)ncc2F)c2cc(F)c(C(=O)NC3(C)CCS(=O)(=O)CC3)cc21)C(C)(C)O` [WO2022076495, EXAMPLE 74b], the half-maximal inhibitory concentration (IC50) turned out to be 6.5 nM.

Take `C[C@H](n1c(=O)n(-c2cc(OCC(F)F)ccc2F)c2cc(F)c(C(=O)NC3(C)CCS(=O)(=O)CC3)cc21)C(C)(C)O` [WO2022076495, EXAMPLE 75a]: the IC50 turned out to be 1.5 nM.

Regarding `C[C@@H](n1c(=O)n(-c2cc(OCC(F)F)ccc2F)c2cc(F)c(C(=O)NC3(C)CCS(=O)(=O)CC3)cc21)C(C)(C)O` [WO2022076495, EXAMPLE 75b], the IC50 was 2.4 nM.

As to `C[C@@H](n1c(=O)n(-c2cccc(OC(F)(F)C(F)F)c2)c2ccc(C(=O)NC3(C)CS(=O)(=O)C3)cc21)C(C)(C)O` [WO2022076495, EXAMPLE 76a], the 50% inhibitory concentration (IC50) turned out to be 80 nM.

`C[C@H](n1c(=O)n(-c2cccc(OC(F)(F)C(F)F)c2)c2ccc(C(=O)NC3(C)CS(=O)(=O)C3)cc21)C(C)(C)O` [WO2022076495, EXAMPLE 76b] came in with an IC50 of 7.9 nM.

In turn, `C[C@H](n1c(=O)n(-c2cccc(OC(F)(F)C(F)F)c2)c2cc(F)c(C(=O)NC3(C)CCS(=O)(=O)CC3)cc21)C(C)(C)O` [WO2022076495, EXAMPLE 77a] gave an IC50 of 5.6 nM.

`C[C@@H](n1c(=O)n(-c2cccc(OC(F)(F)C(F)F)c2)c2cc(F)c(C(=O)NC3(C)CCS(=O)(=O)CC3)cc21)C(C)(C)O` [WO2022076495, EXAMPLE 77b] yielded an IC50 of 9.8 nM.

In the case of `CCOc1cc(-n2c(=O)n([C@H](C)C(C)(C)O)c3cc(C(=O)NC4(C)CS(=O)(=O)C4)ccc32)c(F)cn1` [WO2022076495, EXAMPLE 78a], the IC50 stood at 123 nM.

`CCOc1cc(-n2c(=O)n([C@@H](C)C(C)(C)O)c3cc(C(=O)NC4(C)CS(=O)(=O)C4)ccc32)c(F)cn1` [WO2022076495, EXAMPLE 78b] registered an IC50 of 13 nM.

With `CC1(NC(=O)c2ccc3c(c2)n(S(=O)(=O)c2ccccc2)c(=O)n3-c2cccc(OC(F)F)c2)CCS(=O)(=O)CC1` [WO2022076495, EXAMPLE 86], the half-inhibitory concentration (IC50) is above 9990 nM.

For `CC(C)n1c(=O)n(-c2cccc(OC(F)F)c2)c2ncc(C(=O)NC3(C)CCS(=O)(=O)CC3)cc21` [WO2022076495, EXAMPLE 88], the half-inhibitory concentration (IC50) was 62 nM.

In turn, `CC(C)n1c(=O)n(-c2cc(OC(F)F)ccc2F)c2ncc(C(=O)NC3(C)CCS(=O)(=O)CC3)cc21` [WO2022076495, EXAMPLE 103] showed an IC50 of 74 nM.

`CC(C)n1c(=O)n(-c2cc(OC(F)F)ncc2F)c2cc(F)c(C(=O)NC3(C)CCS(=O)(=O)CC3)cc21` [WO2022076495, EXAMPLE 115] gave an IC50 of 4.1 nM.

Turning to `CC(C)n1c(=O)n(-c2cc(OC(F)(F)C(F)F)ncc2F)c2cc(F)c(C(=O)NC3(C)CCS(=O)(=O)CC3)cc21` [WO2022076495, EXAMPLE 118], the midpoint of inhibition, the IC50, lay at 5.5 nM.

A word on the IC50: it is the point on the concentration scale where inhibition reaches its midpoint. Read a low IC50 as inhibition by little substance.
